{
  "source": "patent US10973801B2",
  "about": "“Capsid assembly modulator dosing regimen” (Janssen Sciences Ireland Unlimited Company, priority 2018, dated 2021)",
  "test_system": "HBV DNA",
  "assay": "Plasma HBV DNA in treatment naïve chronic hepatitis B patients",
  "type": "in vivo, hepatitis B virus",
  "conditions": "for HBV DNA Day 29 Mean Change from Baseline: N 8; for mean reduction in plasma HBV DNA levels from baseline: after 28 days",
  "description": "Serum HBV DNA quantitation can be performed according to methods known in the art, for example, using the polymerase chain reaction (PCR)-based assay COBAS® TAQMAN® HBV Test v2.0 (Roche Diagnostics), which has been validated to quantify HBV DNA from serum samples for diverse HBV genotypes (A-H) including pre-core mutant HBV strains, with a reported lower limit of detection of 35 IU/mL and a linear dynamic range of quantitation of 1.7×10^2 to 8.5×10^8 IU/mL IU/mL, using the WHO pooled serum reference standard for quantitation.\nIn part 2 of this study (FIG. 1, sessions 8-9), the objective was to evaluate the safety, PK, and antiviral activity of Compound A in treatment naïve, chronic hepatitis B patients over a 28-day treatment period. The patient criteria were: • HBeAg-positive or negative • Plasma HBV DNA>2.0 log 10 IU/mL • ALT/AST<2.5×ULN • METAVIR stage<F3. 1.1 Patient Baseline Characteristics\nHBV DNA was assessed for each patient weekly during this study (see FIG. 3). A mean reduction in plasma HBV DNA levels of 2.16 (±0.49 SD) log10 IU/mL (25 mg Compound A) and 2.89 (±0.48 SD) log10 IU/mL (75 mg Compound A) from baseline was observed after 28 days. Three patients dosed with 75 mg QD achieved HBV DNA below the level of quantification of the HBV DNA assay while none in the 25 mg Compound A group achieved this. A more pronounced and consistent decline in HBV DNA was observed across patients in the 75 mg group compared with the 25 mg group.",
  "note": "Values joined by “and” are separate entries in the source; they are usually repeats but may differ in a detail not shown here. Equal entries are not always repeated.",
  "data": [
    {"smiles": "C[C@H](NS(=O)(=O)c1cc(C(=O)Nc2ccc(F)c(C#N)c2)n(C)c1)C(F)(F)F", "note": "[Compound A]", "values": [
      {"measurement": "HBV DNA Day 29 Mean Change from Baseline", "setting": "25 mg QD", "value": "−2.16", "unit": "log10 IU/mL"},
      {"measurement": "mean reduction in plasma HBV DNA levels from baseline", "setting": "25 mg", "value": "2.16 (±0.49 SD) log10 IU/mL and 2.16 (±0.49) log10 IU/mL"},
      {"measurement": "HBV DNA Day 29 Mean Change from Baseline", "setting": "75 mg QD", "value": "−2.89", "unit": "log10 IU/mL"},
      {"measurement": "mean reduction in plasma HBV DNA levels from baseline", "setting": "75 mg", "value": "2.89 (±0.48 SD) log10 IU/mL and 2.89 (±0.48) log10 IU/mL"}
    ]}
  ]
}
